# Measured values from US5593984A, “Cephalosporin derivatives” (Yuhan Corporation, priority 1992, dated 1997).
# Tests used:
# Format in all cases: cell-based
# Ent. cloacae IFO 13535 = experiment: MIC by agar dilution, Ent. cloacae IFO 13535; conditions: Enterobacter cloacae, IFO13535, 17 h; Ent. cloacae IFO 13535; agar dilution, Mueller-Hinton agar; read-out: Minimal Inhibitory Concentration (MIC)
# Method in brief: (§1)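 Strains at 10^6 CFU/ml are spotted onto Mueller-Hinton agar holding two-fold serial compound dilutions, then held 17±1 hours at 35°-37° C. Ceftazidime and cefotaxime are run as reference compounds.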
# [1] = test system: Ps. aeruginosa ATCC 10145; experiment: MIC by agar dilution, Ps. aeruginosa ATCC 10145; conditions: Pseudomonas aeruginosa, ATCC10145, 17 h, Mueller-Hinton agar, read-out: Minimal Inhibitory Concentration (MIC)
# Method in brief: as §1
# B. subtilis ATCC 6633 = experiment: MIC by agar dilution, B. subtilis ATCC 6633; conditions: Bacillus subtilis, ATCC6633, 17 h; B. subtilis ATCC 6633; agar dilution, Mueller-Hinton agar; read-out: Minimal Inhibitory Concentration (MIC)
# Method in brief: as §1
# Staph. aureus ATCC 6538P = experiment: MIC by agar dilution, Staph. aureus ATCC 6538P; conditions: Staphylococcus aureus, ATCC6538P, 17 h; Staph. aureus ATCC 6538P; agar dilution, Mueller-Hinton agar; read-out: Minimal Inhibitory Concentration (MIC)
# Method in brief: as §1
# Prov. stuartii IFO 12930 = experiment: MIC by agar dilution, Prov. stuartii IFO 12930; conditions: Providencia stuartii, IFO12930, 17 h, Mueller-Hinton agar, read-out: Minimal Inhibitory Concentration (MIC)
# Method in brief: as §1
# E. coli NIHJ JC-2 = experiment: MIC by agar dilution, E. coli NIHJ JC-2; conditions: Escherichia coli, NIHJJC2, 17 h; E. coli NIHJ JC-2; agar dilution, Mueller-Hinton agar; read-out: Minimal Inhibitory Concentration (MIC)
# Method in brief: as §1
# [2] = test system: S. epidermidis ATCC 12228; experiment: MIC by agar dilution, S. epidermidis ATCC 12228; conditions: Staphylococcus epidermidis, ATCC12228, 17 h; S. epidermidis ATCC 12228; agar dilution, Mueller-Hinton agar; read-out: Minimal Inhibitory Concentration (MIC)
# Method in brief: as §1
# E. coli DY-1 = experiment: MIC by agar dilution, E. coli DY-1; conditions: Escherichia coli, DY1, 17 h; E. coli DY-1; agar dilution, Mueller-Hinton agar; read-out: Minimal Inhibitory Concentration (MIC)
# Method in brief: as §1
# Ps. aeruginosa DY-2 = experiment: MIC by agar dilution, Ps. aeruginosa DY-2; conditions: Pseudomonas aeruginosa, DY2, 17 h; Ps. aeruginosa DY-2; agar dilution, Mueller-Hinton agar; read-out: Minimal Inhibitory Concentration (MIC)
# Method in brief: as §1
# Staph. aureus C-5216 = experiment: MIC by agar dilution, Staph. aureus C-5216; conditions: Staphylococcus aureus, C5216, 17 h, Mueller-Hinton agar, read-out: Minimal Inhibitory Concentration (MIC)
# Method in brief: as §1
# E. coli No. 29 = experiment: MIC by agar dilution, E. coli No. 29; conditions: Escherichia coli, 17 h; E. coli No. 29; agar dilution, Mueller-Hinton agar; read-out: Minimal Inhibitory Concentration (MIC)
# Method in brief: as §1
# Ent. aerogenes IFO 12979 = experiment: MIC by agar dilution, Ent. aerogenes IFO 12979; conditions: Klebsiella aerogenes, IFO12979, 17 h, Mueller-Hinton agar, read-out: Minimal Inhibitory Concentration (MIC)
# Method in brief: as §1
# Staph. aureus C-5113 = experiment: MIC by agar dilution, Staph. aureus C-5113; conditions: Staphylococcus aureus, C5113, 17 h, Mueller-Hinton agar, read-out: Minimal Inhibitory Concentration (MIC)
# Method in brief: as §1
# K. pneumoniae NCTC 9632 = experiment: MIC by agar dilution, K. pneumoniae NCTC 9632; conditions: Klebsiella pneumoniae, NCTC9632, 17 h; K. pneumoniae NCTC 9632; agar dilution, Mueller-Hinton agar; read-out: Minimal Inhibitory Concentration (MIC)
# Method in brief: as §1
# [3] = test system: Ser. marcescens IFO 12648; experiment: MIC by agar dilution, Ser. marcescens IFO 12648; conditions: Serratia marcescens, IFO12648, 17 h; Ser. marcescens IFO 12648; agar dilution, Mueller-Hinton agar; read-out: Minimal Inhibitory Concentration (MIC)
# Method in brief: as §1
# Staph. aureus C-57 = experiment: MIC by agar dilution, Staph. aureus C-57; conditions: Staphylococcus aureus, C57, 17 h, Mueller-Hinton agar, read-out: Minimal Inhibitory Concentration (MIC)
# Method in brief: as §1
# P. vulgaris NCTC 8313 = experiment: MIC by agar dilution, P. vulgaris NCTC 8313; conditions: Proteus vulgaris, NCTC8313, 17 h; P. vulgaris NCTC 8313; agar dilution, Mueller-Hinton agar; read-out: Minimal Inhibitory Concentration (MIC)
# Method in brief: as §1
# Staph. aureus Smith = experiment: MIC by agar dilution, Staph. aureus Smith; conditions: Staphylococcus aureus, 17 h, Mueller-Hinton agar, read-out: Minimal Inhibitory Concentration (MIC)
# Method in brief: as §1
# [4] = test system: Ps. aeruginosa NCTC 10490; experiment: MIC by agar dilution, Ps. aeruginosa NCTC 10490; conditions: Pseudomonas aeruginosa, NCTC10490, 17 h, Mueller-Hinton agar, read-out: Minimal Inhibitory Concentration (MIC)
# Method in brief: as §1
# M. morganii DY-1 = experiment: MIC by agar dilution, M. morganii DY-1; conditions: Morganella morganii, DY1, 17 h; M. morganii DY-1; agar dilution, Mueller-Hinton agar; read-out: Minimal Inhibitory Concentration (MIC)
# Method in brief: as §1
Compound,MIC (Ent. cloacae IFO 13535) [µg/mL],MIC [1] [µg/mL],MIC (B. subtilis ATCC 6633) [µg/mL],MIC (Staph. aureus ATCC 6538P) [µg/mL],MIC (Prov. stuartii IFO 12930) [µg/mL],MIC (E. coli NIHJ JC-2) [µg/mL],MIC [2] [µg/mL],MIC (E. coli DY-1) [µg/mL],MIC (Ps. aeruginosa DY-2) [µg/mL],MIC (Staph. aureus C-5216) [µg/mL],MIC (E. coli No. 29) [µg/mL],MIC (Ent. aerogenes IFO 12979) [µg/mL],MIC (Staph. aureus C-5113) [µg/mL],MIC (K. pneumoniae NCTC 9632) [µg/mL],MIC [3] [µg/mL],MIC (Staph. aureus C-57) [µg/mL],MIC (P. vulgaris NCTC 8313) [µg/mL],MIC (Staph. aureus Smith) [µg/mL],MIC [4] [µg/mL],MIC (M. morganii DY-1) [µg/mL]
"CO/N=C(\C(=O)N[C@@H]1C(=O)N2C(C(=O)[O-])=C(C[n+]3ccn4cccc4c3C)CS[C@H]12)c1nsc(N)n1 [Ex. 57, 7-β-[(Z)-2-(5-amino-1,2,4-thiadiazol-3-yl)-2-methoxyiminoacetamido]-3-(1-methylpyrrolo[1,2-a]-pyrazinium-2-yl)methyl-3-cephem-4-carboxylate]",0.1,0.78,0.2,0.1,0.012,0.012,0.05,0.025,1.56,0.39,0.025,0.025,0.2,0.012,0.025,1.56,0.05,0.78,0.2,0.05
"Nc1nc(C(=NOCF)C(=O)NC2C(=O)N3C(C(=O)[O-])=C(C[n+]4ccn5c(SCCO)ccc5c4)CSC23)cs1 (stereo not drawn) [Ex. 10, 7-β-[(Z)-2-(2-aminothiazol-4-yl)-2-fluoromethoxyiminoacetamido]-3-[6-(2-hydroxyethylthio)pyrrolo[1,2-a]pyrazinium-2-yl]methyl-3-cephem-4-carboxylate]",0.2,0.78,0.1,0.1,≤ 0.006,0.025,0.05,≤ 0.006,3.13,0.78,≤ 0.006,0.05,0.39,0.025,0.012,12.5,0.012,0.1,0.2,0.012
"CCON=C(C(=O)NC1C(=O)N2C(C(=O)[O-])=C(C[n+]3ccn4c(C(C)=O)ccc4c3)CSC12)c1csc(N)n1 (stereo not drawn) [Ex. 19, 7-β-[(Z)-2-(2-aminothiazol-4-yl)-2-ethoxyiminoacetamido]-3-(6-acetylpyrrolo[1,2-a]pyrazinium-2-yl)methyl-3-cephem-4-carboxylate]",0.2,3.13,0.1,0.2,0.05,0.05,0.05,0.025,6.25,1.56,0.05,0.012,1.56,0.05,0.1,50,≤ 0.006,0.78,0.1,0.025
"CON=C(C(=O)NC1C(=O)N2C(C(=O)[O-])=C(C[n+]3ccn4c(SCCO)ccc4c3)CSC12)c1csc(N)n1 (stereo not drawn) [Ex. 8, 7-β-[(Z)-2-(2-aminothiazol-4-yl)-2-methoxyiminoacetamido]-3-[6-(2-hydroxyethylthio)pyrrolo[1,2-a]pyrazinium-2-yl]methyl-3-cephem-4-carboxylate]",1.56,0.78,0.1,0.1,≤ 0.006,0.012,0.1,≤ 0.006,3.13,0.78,≤ 0.006,0.012,0.39,0.012,0.012,25,0.012,0.2,0.2,0.025
"CO/N=C(\C(=O)N[C@@H]1C(=O)N2C(C(=O)[O-])=C(C[n+]3ccn4c(Cl)ccc4c3C)CS[C@H]12)c1csc(N)n1 [Ex. 45, 7-β-[(Z)-2-(2-aminothiazol-4-yl)-2-methoxyiminoacetamido]-3-(6-chloro-1-methylpyrrolo[1,2-a]pyrazinium-2-yl)methyl-3-cephem-4-carboxylate]",0.05,3.13,0.1,0.1,≤ 0.006,0.025,0.012,0.012,6.25,0.78,0.012,0.025,0.39,0.012,0.025,6.25,≤ 0.006,0.39,0.39,0.012
"CCON=C(C(=O)NC1C(=O)N2C(C(=O)[O-])=C(C[n+]3ccn4c(SCCN)ccc4c3)CSC12)c1csc(N)n1 (stereo not drawn) [Ex. 28, 7-β-[(Z)-2-(2-aminothiazol-4-yl)2-ethoxyiminoacetamido]-3-[6-(2-aminoethylthio)pyrrolo[1,2-a]pyrazinium-2-yl]methyl-3-cephem-4-carboxylate]",0.2,1.56,0.1,0.2,0.012,0.025,0.05,0.012,3.13,0.78,0.012,0.012,0.78,0.05,0.05,50,0.012,0.78,0.39,0.05
